# Assay results published in US8124381B2, “Process and materials for production of glucosamine and N-acetylglucosamine” (Arkion Life Sciences, priority 2002, dated 2012).
# Tests used:
# [1] = molecular target: E. coli GlmS mutant GlmS*110 (Escherichia coli, UniProt P17169); test: GlmS inhibition and Michaelis-Menten kinetics; format: biochemical; conditions: read-out: Km (fructose-6-P)
# Protocol: (§1) Different glucosamine synthetase enzymes, including native B. subtillus GlmS, native E. coli GlmS and mutant E. coli GlmS, were studied in vitro. Cells of various E. coli strains were grown in the M9A medium, harvested, and frozen. Cells extracts were prepared and the glucosamine synthetases were characterized and compared.
# (§2) Enzyme sensitivities to the reaction product glucosamine-6-P were examined. […] This figure highlights the dramatic difference between the wild type GlmS and these mutant GlmS strains.
# (§3) The Mutants 2123-54 and the B. subtilis enzyme have higher Ki values (Table 6). Measured Ki constants for several of these mutants are 4 to 8 times the value for the native enzyme in strain 2123-12. From shake flask studies it is apparent that decreased sensitivity to glucosamine-6-P allows higher glucosamine levels to accumulate.
# (§4) These values are slightly higher than those obtained with the native enzyme.
# [2] = molecular target: E. coli GlmS mutant GlmS*69 (Escherichia coli, UniProt P17169); test: GlmS inhibition and Michaelis-Menten kinetics; format: biochemical; conditions: read-out: Km (fructose-6-P)
# Chain of E. coli GlmS mutant GlmS*69 (P17169 whole entry, change not shown): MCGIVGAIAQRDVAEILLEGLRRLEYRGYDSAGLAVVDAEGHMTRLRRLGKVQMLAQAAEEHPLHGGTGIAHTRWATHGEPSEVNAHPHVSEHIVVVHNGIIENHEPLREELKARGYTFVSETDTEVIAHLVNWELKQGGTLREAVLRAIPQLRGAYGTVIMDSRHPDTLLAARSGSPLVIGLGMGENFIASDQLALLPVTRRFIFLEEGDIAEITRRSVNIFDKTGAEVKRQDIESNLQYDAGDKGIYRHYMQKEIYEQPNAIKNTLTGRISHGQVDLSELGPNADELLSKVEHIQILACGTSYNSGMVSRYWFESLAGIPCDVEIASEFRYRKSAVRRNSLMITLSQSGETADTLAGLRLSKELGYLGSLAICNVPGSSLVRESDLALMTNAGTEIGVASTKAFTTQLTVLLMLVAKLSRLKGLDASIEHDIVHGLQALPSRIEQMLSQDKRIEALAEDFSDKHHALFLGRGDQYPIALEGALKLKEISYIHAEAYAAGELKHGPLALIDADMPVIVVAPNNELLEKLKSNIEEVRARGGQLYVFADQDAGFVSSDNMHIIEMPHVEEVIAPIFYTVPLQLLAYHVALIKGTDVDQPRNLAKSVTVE
# Protocol: as §1, §2, §3, §4
# [3] = molecular target: E. coli glucosamine synthase GlmS*54, SEQ ID NO:6 (Ala39Thr, Arg250Cys, Gly472Ser) (Escherichia coli, UniProt P17169, A39T/G472S/R250C); test: Effects of phosphorylated sugars on glucosamine synthase, crude extract of lactose-induced 7107-18 cells; format: biochemical; conditions: 10 mM or relatively high concentration
# Chain of E. coli glucosamine synthase GlmS*54, SEQ ID NO:6 (Ala39Thr, Arg250Cys, Gly472Ser) (P17169 whole entry A39T/R250C/G472S): as the sequence (P17169 whole entry, change not shown) above, with A39T, R250C, G472S counted along it
# Protocol: Glucosamine synthetase activity was examined in the presence of various phosphorylated sugars. Crude enzyme extracts was prepared from cells of 7017-18 grown in shake flasks for 24 hours with lactose induction.
# [4] = Glucosamine stability under acid/heat hydrolysis conditions; format: physicochemical; conditions: for glucosamine stability with heating: 10 g/l in M9A, 100 C
# Protocol: In the first experiment N-acetylglucosamine (10 g/l in […] medium without glucose) was hydrolyzed at 100° C. with various levels of hydrochloric acid. In a parallel experiment, glucosamine was subjected to the same treatments to determine its stability under hydrolysis conditions. Conversion of N-acetylglucosamine to glucosamine was determined by monitoring the amount of glucosamine generated by the hydrolysis reaction. Glucosamine was determined by an HPLC method based on that described by Way et al. (Journal of Liquid Chromatography and Related Technologies, 23:2861, 2000). Some specific details of the HPLC method are given below: column: […] Both the amount of remaining N-acetylglucosamine and the amount of formed glucosamine were monitored. N-acetylglucosamine was measured by HPLC using a standard carbohydrate system. Some specific details are given below: column: […] Glucosamine was measured using the ion pair HPLC column as described above. […] At 100° C. conversion was complete by 2.5 hours. […] At lower temperatures, some hydrolysis was observed, but this was much slower. […] Acid hydrolysis of N-acetylglucosamine at 90° C. was performed. […] A series of 12-ml glass screw capped tubes with Teflon lined caps were employed. Each tube represented a separate time point (0, 15, 30, 45, 60, 90 minutes) and contained 2 ml of the N-acetylglucosamine/hydrochloric acid solution. Tubes were heated in a heating block equilibrated at 90° C. Tubes were removed at appropriate times and quick cooled in ice water. Appropriate dilutions were made in and samples analyzed by HPLC for glucosamine and N-acetylglucosamine. […] Kinetics of N-acetylglucosamine disappearance were essentially the same for all four solutions. Hydrolysis is very rapid at 90° C. […] No N-acetylglucosamine was detected at 60 or 90 minutes. After 1 hour at 90° C., N-acetylglucosamine was no longer detected even with 20% N-acetylglucosamine.
# E. coli strain 7107-18 = test: Effects of glucosamine and N-acetylglucosamine on growth and survival of E. coli 7107-18; format: cell-based, Escherichia coli
# Protocol: As shown in Example 11, glucosamine is unstable at the regular pH range used for E. coli growth. […] The toxicity was attributed to at least partially to GlcN degradation products in media with a starting pH of 7.0. […] However, low pH levels are known to limit cell growth. Therefore, experiments were conducted in which 7107-18 was grown at pH 7.0, 6.0, 5.5, 5.0 and 4.7. The main objectives were to study cell growth at these lower pHs (with GlcN), and to see if the previously observed cell death caused by GlcN degradation could be reduced at lower pHs.
# Cells were inoculated into M9A-glucose (40 g/L) containing 62 g/L N-acetyl glucosamine.
# [5] = Glucosamine stability in cell-free M9A medium; format: physicochemical; conditions: for loss of glucosamine: 60 g l-1, cell-free M9A-glucose, 30 C, 52 hours; for glucosamine degradation: cell-free M9A + 40 g l-1 glucose
# Protocol: Glucosamine stability was tested in cell-free M9A medium (14 g l^−1 K2HPO4, 16 g l^−1 KH2PO4, 1 g l^−1 Na3citrate.2H2O, 5 g l^−1 (NH4)2SO4, 1 mM MgSO4, 1 mM CaCl2, pH 7.0) supplemented with 40 g l^−1 glucose. Glucosamine was prepared as a 30% glucosamine-HCl concentrated solution and was added to final concentrations of 0, 4, 13, 26 and 42 g l^−1 (50 ml total in 250-ml flask). The pH of the medium was adjusted to pH 6.9. Flasks were placed on a shaker and agitated at about 225 rpm. Glucosamine levels and pH were monitored at 30° C. for about 24 hours. […] The degradation was only about 25% when the starting glucosamine concentration was 4 g l^−1. Glucosamine degradation was accompanied by a decline of pH in the medium. In the 42 g l^−1 glucosamine sample the pH in the medium was lowered by 0.7 units (from 6.9 to 6.2) after a 24-hr period, as compared to a pH change of only about 0.15 units in medium without glucosamine.
# The breakdown of glucosamine (60 g l^−1) at four starting pH levels was monitored at 30° C. in cell-free M9A-glucose (40 g l^−1) for 52 hours. At each sampling time, the solutions were readjusted to their original pH. Each condition was run in triplicate. […] The loss of glucosamine was 68% at pH 7.0 as compared to 18% at pH 5.5.
# To test the involvement of the aldehyde group, degradation was monitored in M9A medium containing 30 g l^−1 glucosamine with and without 40 g l^−1 glucose. If the aldehyde group is involved, the presence of glucose would affect the rate of glucosamine degradation/polymerization.
# [6] = Degradation in hydrochloric acid at 90-100 C based on ammonia formation; format: physicochemical; conditions: 5% and 10% glucosamine hydrochloride, 12% and 20% hydrochloric acid, 90 C, 1-24 hours
# Protocol: Glucosamine degradation was examined at 90° C. and 100° C. using 5% and 10% glucosamine hydrochloride (w/w) with 12% and 20% hydrochloric acid by weight. Samples were incubated from 1-24 hours and assayed enzymatically for ammonia using glutamate dehydrogenase. […] Glucosamine degradation is based on ammonia formation.
# N-acetylglucosamine was hydrolyzed to glucosamine at 90° C. using the hybridization oven. The reaction was carried out inside a screw capped glass tube. The 30% hydrochloric acid (30 g) was preincubated at 90° C. for 1 hour. After this 10 g solid N-acetylglucosamine was added, quickly dissolved, and a To sample taken. Samples were taken at 30-minute intervals over the next three hours. […] Samples were analyzed for ammonia enzymatically.
# E. coli 7107-18 = test system: E. coli 7107-18
# Protocol: Batches of M9A medium with 40 g l^−1 glucose and 20 g 1-1 GlcN were adjusted to five different pHs. One set of flasks was immediately inoculated with 7107-18 cells. Replicate flasks of the same media were incubated without cells for 10 hours, before inoculation. Seven times over 48 hours, flasks were sampled to measure pH, OD600, and GlcN concentration. At each sample point, the pH of the culture was readjusted back to the initial settings.
# Glucosamine is vital for E. coli growth since it is a precursor for the synthesis of important cell wall components. E. coli is also capable of using Glucosamine and N-acetylglucosamine as the sole carbon source. The catabolism of the amino sugars requires a functional glucosamine deaminase encoded by the nagB gene, which was deleted in strain 7107-18. […] Experiments were carried out to investigate if glucosamine affects E. coli 7107-18 cell growth and survival in medium containing 40 g l^−1 glucose.
# [7] = Stability of glucosamine in stored culture supernatant samples; format: physicochemical
# Protocol: Shake flask culture samples were assayed by both the HPLC method and the colorimetric methods. The culture supernatants were obtained by centrifugation and filtration to remove particles, and stored at -20° C. until analysis. HPLC was calibrated using a single point 2500 ppm standard solution prepared in […] medium. After thawing, samples were immediately analyzed by HPLC. After remaining in the autosampler overnight, the samples were analyzed again. Agreement was very good between the two methods.
# [8] = substrate: O=P(O)(O)OC[C@H]1OC(O)(CO)[C@@H](O)[C@@H]1O; test: purified protein, by the assay type
# Chain of E. coli GlmS mutant GlmS*110 (P17169 whole entry, stated change not applied): as the sequence (P17169 whole entry, change not shown) above
molecule,measurement,setting,value
"O=P(O)(O)OC[C@H]1OC(O)(CO)[C@@H](O)[C@@H]1O (stereo partly drawn) [fructose-6-P, fructose-6-phosphate]",Km,[1],410 µM
same,Km,[2],350 µM
"N[C@H]1[C@@H](OP(=O)(O)O)O[C@H](CO)[C@@H](O)[C@@H]1O [glucosamine-1-P, glucosamine-1-phosphate]",inhibition of glucosamine synthetase (in words),[3],inhibited the enzyme at 10 mM
N[C@H]1C(O)O[C@H](CO)[C@@H](O)[C@@H]1O (stereo partly drawn) [glucosamine],glucosamine degradation,"[4]; 20 g/l, 1 N hydrochloric acid, 35, 60 or 100 C, 24 hours",No degradation was observed
same,loss of glucosamine,"[4]; 90 C, 12% and 16% hydrochloric acid, 90 minutes",No large loss of glucosamine was observed
same,glucosamine stability with heating,"[4]; pH 1.0 or lower, hydrochloric acid",stable
same,glucosamine stability with heating,[4]; pH higher than 1.0,a significant amount of glucosamine was lost
same,viable count relative to original number,"E. coli strain 7107-18; 40 g per liter, after 52 hrs",about one-fifth
same,concentration at which toxicity was observed,E. coli strain 7107-18; pre-incubated in medium (pH 7.0) for 3.5 hrs prior to inoculation,20000 µg/mL
same,stability of glucosamine (in words),"[5]; 0-42 g l-1 in cell-free M9A-glucose, pH 6.9, 30 C",unstable
same,glucosamine breakdown with versus without 40 g l-1 glucose,[5]; 30 g l-1 glucosamine in M9A medium,No significant difference
same,decline of pH in the medium,"[5]; 42 g l-1 glucosamine, 24-hr period (6.9 to 6.2)",0.7 units
same,loss of glucosamine,[5]; pH 5.5,18%
same,loss of glucosamine,[5]; pH 7.0,68%
same,glucosamine degradation,"[5]; starting 4 g l-1, pH 6.9, 30 C, about 24 hours",about 25%
same,glucosamine degradation,"[5]; starting 42 g l-1, pH 6.9, 30 C, less than a day",More than half
same,glucosamine degradation based on ammonia formation (in words),[6],significantly higher with higher acid concentration
same,growth of freshly inoculated cultures,"E. coli 7107-18; 10 and 20 g of glucosamine per liter, medium with 40 g l-1 glucose",slightly inhibited
same,toxicity on strain 7107-18,E. coli 7107-18; 20 g l-1 glucosamine pre-incubated in the medium (pH 7.0) for 3.5 hrs prior to inoculation,Toxicity was observed
same,cell growth after inoculation into pre-incubated medium,"E. coli 7107-18; 20 g l-1 glucosamine, medium incubated 10 hours before inoculation, pH 7.0 to 4.7",very poor
same,cell growth without glucosamine pre-incubation,"E. coli 7107-18; 20 g l-1 glucosamine, pH 7.0",good growth
same,viable counts relative to inoculation levels,E. coli 7107-18; 35 g l-1 glucosamine,10^5 fold less than inoculation levels
same,"cell growth, inoculated immediately",E. coli 7107-18; 35 g l-1 glucosamine in M9A-glucose (40 g l-1),grew reasonably well
same,cell survival in pre-incubated medium,"E. coli 7107-18; 35 g l-1 glucosamine, medium pre-incubated as short as 3.5 hours",died rapidly
same,viable count after 52 hrs,E. coli 7107-18; 40 g glucosamine per liter,about one-fifth the original number
same,cell growth and survival,"E. coli 7107-18; 40 g glucosamine per liter, killing after about 16 hours",prevented cell growth and began to kill the cells
same,cell survival without medium pre-incubation,E. coli 7107-18; 50 g l-1 glucosamine,Cells died
same,glucosamine concentration after storage,"[7]; filtered culture samples, -20 C, several weeks",no decrease in glucosamine concentration
same,glucosamine concentration after storage,"[7]; filtered samples, room temperature, overnight",did not result in any decrease in glucosamine concentration
"Bacillus subtilis GlmS, wild type, SEQ ID NO:16 (Bacillus subtilis subsp. subtilis str. 168) (protein) CGIVGYIGQLDAKEILLKGLEKLEYRGYDSAGIAVANEQGIHVFKEKGRIADLREVVDANVEAKAGIGHTRWATHGEPSYLNAHPHQSALGRFTLVHNGVIENYVQLKQEYLQDVELKSDTDTEVVVQVIEQFVNGGLETEEAFRKTLTLLKGSYAIALFDNDNRETIFVAKNKSPLLVGLGDTFNVVASDAMAMLQVTNEYVELMDKEMVIVTDDQVVIKNLDGDVITRASYIAELDASDIEKGTYPHYMLKETDEQPVVMRKIIQTYQDENGKLSVPGDIAAAVAEADRIYIIGCGTSYHAGLVGKQYIEMWANVPVEVHVASEFSYNMPLLSKKPLFIFLSQSGETADSRAVLVQVKALGHKALTITNVPGSTLSREADYTLLLHAGPEIAVASTKAYTAQIAVLAVLASVAADKNGINIGFDLVKELGIAANAMEALCDQKDEMEMIAREYLTVSRNAFFIGRGLDYFVCVEGALKLKEISYIQAEGFAGGELKHGTIALIEQGTPVFALATQEHVNLSIRGNVKEVAARGANTCIISLKGLDDADDRFVLPEVNPALAPLVSVVPLQLIAYYAALHRGCDVDKPRNLAKSVTVE",Km,[8],620 µM
